Experimental data as given in patent US20140206624A1, “TREATMENT OF LEUKEMIA” (THE BRIGHAM AND WOMEN'S HOSPITAL, INC., priority 2011, published 2014).

Test system: c-Jun, FoxO3 phosphorylation
Assay: Western blot of BM cells from mice that succumbed to AML
Assay type: in vivo, mouse
Details: pI-pC-treated Mx1-Cre+ mice that died of AML despite deletion of FoxO1/3/4
Source text: BM cells recovered from mice that succumbed to control or myrAKT-expressing MLL-AF9-induced AML (refer to FIG. 10G) were subjected to western blot with antibodies that specifically recognize AKT, Tubulin or the phosphorylated forms of FoxO3 (pFoxO3^S256) c-JUN (pc-JUN^S63).
BM cells recovered from mice that succumbed MLL-AF9-induced AML (refer to FIG. 5F) that were wild type or null for FoxO1/3/4 were subjected to western blot with antibodies that specifically recognize AKT, Tubulin or the phosphorylated forms of FoxO3 (pFoxO3^S256) c-JUN (pc-JUN^S63).
Based on the observation that the JNK/c-JUN signaling pathway is activated in response to FOXO inhibition (directly or via AKT activation), whether the activation of this pathway was also initiated in vivo was examined. To this end, the phosphorylation status of c-Jun in BM cells of saline and pI-pC-treated FoxO1/3/4^floxed; Mx1-Cre+; MLL-AF9 mice (FIG. 9F) that developed overt AML was examined. Enhanced pc-Jun^Ser63 in 75% of mice that died of AML despite efficient deletion of FoxO1/3/4 (FIGS. 13A and 10C-10F) was observed. The phosphorylation status of BM cells derived from control and myrAKT-expressing leukemic mice from FIG. 10H was evaluated.

polyinosine-polycytidyline [pI-pC]
mice with enhanced pc-Jun^Ser63: 75%
